Source: patent US11180521B2, “Nicotinamide riboside analogs, pharmaceutical compositions, and uses thereof” (Metro International Biotech, LLC, priority 2018, dated 2021)

How the values were obtained:
Type in all cases: in vivo, C57BL/6 mice
[1] = PK/PD duration of effect study, single oral gavage dose: administered compound level in skeletal muscle; design: key to transcyclohexyl NaR dimer concentration: BQL: Below quantitation limit; BDL: Below Detection Limit, No Peak Detected; details: pre-dose BQL
Description: (§1) Transcyclohexyl nicotinic acid riboside (NaR) dimer was administered by oral gavage at a dose of 500 mg/kg in an Ethanol/PBS, pH 7.4/PEG400 (10/30/60) vehicle. The dosing volume was 5 ml/kg at a solution concentration of 100 mg/ml. The solution concentration was increased for the presence of counterion.
(§2) Animals were fasted for 16 hours prior to dosing. Samples were collected pre-dose and at 0.25, 0.75, 1, 2, 4, 8 and 24 hr post dosing. Following euthanasia, the entire liver and skeletal muscle (gastrocnemius with attached soleus muscle, bilateral) were rinsed with 0.9% saline, and frozen for later bioanalysis. Samples were maintained frozen at −80° C. until bioanalysis.
(§3) Samples were thawed, homogenized, extracted and analyzed by LC-MS on the same day. The LC used was a Shimadzu Nexera UPLC, and the mass spectrometer was an AB Sciex Qtrap 6500. Specimens were analyzed for levels of administered compound (transcyclohexyl NaR dimer), as well as for levels of NAD, NAAD, NAM, and NMN by the method of standard addition, to detect alterations from the basal levels of the analytes. Calibration standards for quantifying administered compound were prepared using transcyclohexyl NaR dimer in mouse liver or skeletal muscle homogenates. Corresponding standards for quantifying other metabolites were also prepared. Data are calculated as the mean concentration from n=6 animals per time point.

[2] = tested on: NAD, NAAD, NAM, and NMN levels in skeletal muscle; assay: PK/PD duration of effect study, single oral gavage dose: NAD, NAAD, NAM and NMN levels in skeletal muscle; design: key to NAAD concentration: BQL: Below quantitation limit; BDL: Below Detection Limit, No Peak Detected; details: for NAAD concentration: pre-dose BDL
Description: as §1, §2, §3

[3] = PK/PD duration of effect study, single oral gavage dose: administered compound level in liver
Description: as §1, §2, §3

[4] = 0.25 hr after 500 mg/kg oral gavage
[5] = 1 hr after 500 mg/kg oral gavage
[6] = 2 hr after 500 mg/kg oral gavage
[7] = 24 hr after 500 mg/kg oral gavage

CC(=O)OC[C@H]1O[C@@H]([n+]2cccc(C(=O)O[C@H]3CC[C@H](OC(=O)c4ccc[n+]([C@@H]5O[C@H](COC(C)=O)[C@@H](OC(C)=O)[C@H]5OC(C)=O)c4)CC3)c2)[C@H](OC(C)=O)[C@@H]1OC(C)=O [transcyclohexyl NaR dimer, Transcyclohexyl nicotinic acid riboside (NaR) dimer]
transcyclohexyl NaR dimer concentration [1, 4]: 0.0142 mmol/kg | transcyclohexyl NaR dimer concentration [1, 5]: 0.00109 mmol/kg | transcyclohexyl NaR dimer concentration [1, 6]: BQL | transcyclohexyl NaR dimer concentration ([1]; 4 hr after 500 mg/kg oral gavage): BQL | transcyclohexyl NaR dimer concentration ([1]; 8 hr after 500 mg/kg oral gavage): BQL | transcyclohexyl NaR dimer concentration [1, 7]: BQL | concentration at 0.25 h ([1]; C57BL/6, mouse, 0.25 hr after 500 mg/kg oral gavage, read-out: transcyclohexyl NaR dimer concentration): 12000 ng/g | concentration at 1 h ([1]; C57BL/6, mouse, 1 hr after 500 mg/kg oral gavage, read-out: transcyclohexyl NaR dimer concentration): 921 ng/g | NMN concentration ([2]; 0.25 hr after 500 mg/kg oral gavage, pre-dose 0.00225): 0.002 mmol/kg | NAM concentration ([2]; 0.25 hr after 500 mg/kg oral gavage, pre-dose 0.159): 0.161 mmol/kg | NMN concentration ([2]; 0.25 hr after 500 mg/kg oral gavage, pre-dose 0.752): 0.667 µg/g | NAD concentration ([2]; 0.25 hr after 500 mg/kg oral gavage, pre-dose 0.781): 0.826 mmol/kg | NAM concentration ([2]; 0.25 hr after 500 mg/kg oral gavage, pre-dose 19.4): 19.7 µg/g | NAD concentration ([2]; 0.25 hr after 500 mg/kg oral gavage, pre-dose 518): 548 µg/g | NAAD concentration [2, 4]: BDL | NMN concentration ([2]; 0.75 hr after 500 mg/kg oral gavage, pre-dose 0.00225): 0.00196 mmol/kg | NAM concentration ([2]; 0.75 hr after 500 mg/kg oral gavage, pre-dose 0.159): 0.208 mmol/kg | NMN concentration ([2]; 0.75 hr after 500 mg/kg oral gavage, pre-dose 0.752): 0.656 µg/g | NAD concentration ([2]; 0.75 hr after 500 mg/kg oral gavage, pre-dose 0.781): 0.861 mmol/kg | NAM concentration ([2]; 0.75 hr after 500 mg/kg oral gavage, pre-dose 19.4): 25.3 µg/g | NAD concentration ([2]; 0.75 hr after 500 mg/kg oral gavage, pre-dose 518): 571 µg/g | NAAD concentration ([2]; 0.75 hr after 500 mg/kg oral gavage): BDL | NMN concentration ([2]; 1 hr after 500 mg/kg oral gavage, pre-dose 0.00225): 0.00173 mmol/kg | NAM concentration ([2]; 1 hr after 500 mg/kg oral gavage, pre-dose 0.159): 0.184 mmol/kg | NMN concentration ([2]; 1 hr after 500 mg/kg oral gavage, pre-dose 0.752): 0.579 µg/g | NAD concentration ([2]; 1 hr after 500 mg/kg oral gavage, pre-dose 0.781): 0.720 mmol/kg | NAM concentration ([2]; 1 hr after 500 mg/kg oral gavage, pre-dose 19.4): 22.4 µg/g | NAD concentration ([2]; 1 hr after 500 mg/kg oral gavage, pre-dose 518): 478 µg/g | NAAD concentration [2, 5]: BDL | NMN concentration ([2]; 2 hr after 500 mg/kg oral gavage, pre-dose 0.00225): 0.00191 mmol/kg | NAM concentration ([2]; 2 hr after 500 mg/kg oral gavage, pre-dose 0.159): 0.0918 mmol/kg | NMN concentration ([2]; 2 hr after 500 mg/kg oral gavage, pre-dose 0.752): 0.639 µg/g | NAD concentration ([2]; 2 hr after 500 mg/kg oral gavage, pre-dose 0.781): 0.875 mmol/kg | NAM concentration ([2]; 2 hr after 500 mg/kg oral gavage, pre-dose 19.4): 11.2 µg/g | NAD concentration ([2]; 2 hr after 500 mg/kg oral gavage, pre-dose 518): 581 µg/g | NAAD concentration [2, 6]: BDL | NMN concentration ([2]; 4 hr after 500 mg/kg oral gavage, pre-dose 0.00225): 0.00222 mmol/kg | NAM concentration ([2]; 4 hr after 500 mg/kg oral gavage, pre-dose 0.159): 0.166 mmol/kg | NMN concentration ([2]; 4 hr after 500 mg/kg oral gavage, pre-dose 0.752): 0.740 µg/g | NAD concentration ([2]; 4 hr after 500 mg/kg oral gavage, pre-dose 0.781): 0.726 mmol/kg | NAM concentration ([2]; 4 hr after 500 mg/kg oral gavage, pre-dose 19.4): 20.2 µg/g | NAD concentration ([2]; 4 hr after 500 mg/kg oral gavage, pre-dose 518): 482 µg/g | NMN concentration ([2]; 8 hr after 500 mg/kg oral gavage, pre-dose 0.00225): 0.00245 mmol/kg | NAM concentration ([2]; 8 hr after 500 mg/kg oral gavage, pre-dose 0.159): 0.170 mmol/kg | NMN concentration ([2]; 8 hr after 500 mg/kg oral gavage, pre-dose 0.752): 0.818 µg/g | NAD concentration ([2]; 8 hr after 500 mg/kg oral gavage, pre-dose 0.781): 0.648 mmol/kg | NAM concentration ([2]; 8 hr after 500 mg/kg oral gavage, pre-dose 19.4): 20.8 µg/g | NAD concentration ([2]; 8 hr after 500 mg/kg oral gavage, pre-dose 518): 430 µg/g | NMN concentration ([2]; 24 hr after 500 mg/kg oral gavage, pre-dose 0.00225): 0.00199 mmol/kg | NAM concentration ([2]; 24 hr after 500 mg/kg oral gavage, pre-dose 0.159): 0.155 mmol/kg | NMN concentration ([2]; 24 hr after 500 mg/kg oral gavage, pre-dose 0.752): 0.665 µg/g | NAD concentration ([2]; 24 hr after 500 mg/kg oral gavage, pre-dose 0.781): 0.635 mmol/kg | NAM concentration ([2]; 24 hr after 500 mg/kg oral gavage, pre-dose 19.4): 18.9 µg/g | NAD concentration ([2]; 24 hr after 500 mg/kg oral gavage, pre-dose 518): 421 µg/g | NAAD concentration [2, 7]: BDL | % AUC Extrap of transcyclohexyl NaR dimer ([3]; 500 mg/kg oral gavage): 0.00% | AUC(0-x) of transcyclohexyl NaR dimer ([3]; 500 mg/kg oral gavage): 3.05 µg·h/g | AUC(0-∞) of transcyclohexyl NaR dimer ([3]; 500 mg/kg oral gavage): 3.05 µg·h/g | transcyclohexyl NaR dimer concentration ([3]; 0.25 hr after 500 mg/kg oral gavage, pre-dose BQL): 0.0125 mmol/kg
